# Measured values from ChEMBL document CHEMBL4385605, “Synthesis and Structure-Affinity Relationships of Spirocyclic Benzopyrans with Exocyclic Amino Moiety” (J Med Chem, 2019).
# Activity calls are given as the source filed them. The calls are words filed in the database; no cut-off is given here.
# Tests used:
# [1] = target: Kappa-type opioid receptor (Cavia porcellus, UniProt P41144); assay: Displacement of [3H]U69,593 from kappa opioid receptor in guinea pig brain membrane after 120 mins by scintillation counting analysis; assay type: cell membranes
# [2] = Selectivity ratio of Ki for displacement of [3H]DTG from sigma2 receptor in rat liver membranes to Ki for displacement of (+)-[3H]pentazocine from sigma 1 receptor in guinea pig brain cortex membranes; assay type: cell membranes
# [3] = target: Sigma intracellular receptor 2 (Homo sapiens, UniProt Q5BJF2); assay: Displacement of [3H]-di-o-tolylguanidine from sigma2 receptor in human RT4 cell membranes at 1 uM after 120 mins in the presence of sigma1 receptor ligand (+)-pentazocine by scintillation counting method relative to control
# [4] = target: T1, Sigma intracellular receptor 2 (Rattus norvegicus, UniProt Q5U3Y7); assay: Displacement of [3H]-di-o-tolylguanidine from sigma2 receptor in rat liver membranes incubated for 120 mins in the presence of sigma1 receptor ligand (+)-pentazocine by scintillation counting method; assay type: cell membranes
# T1 sequence (Q5U3Y7 whole entry): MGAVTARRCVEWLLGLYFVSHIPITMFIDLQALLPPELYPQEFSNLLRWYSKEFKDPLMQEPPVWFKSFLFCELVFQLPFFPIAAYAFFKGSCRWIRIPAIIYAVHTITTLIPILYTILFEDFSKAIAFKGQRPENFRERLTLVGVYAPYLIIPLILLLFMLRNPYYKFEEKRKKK
# [5] = target: Delta-type opioid receptor (Rattus norvegicus, UniProt P33533); assay: Displacement of [3H]DPDPE from delta opioid receptor in rat membranes after 120 mins by scintillation counting analysis; assay type: cell membranes
# Mu-type opioid receptor [6] = target: Mu-type opioid receptor (Cavia porcellus, UniProt P97266); assay: Displacement of [3H]DAMGO from mu opioid receptor in guinea pig brain membranes after 120 mins by scintillation counting analysis; assay type: cell membranes
# Sus scrofa = species: Sus scrofa; assay: Displacement of [3H]-(+)-MK-801 from PCP binding site of NMDA receptor in pig brain cortex membranes up to 1 uM after 120 mins by scintillation counting analysis; assay type: cell membranes
# Cavia porcellus = species: Cavia porcellus; assay: Selectivity ratio of Ki for displacement of [3H](+)-pentazocine from sigma 1 receptor in guinea pig brain cortex membranes to Ki for displacement of [3H]DAMGO from mu opioid receptor in guinea pig brain membranes; assay type: cell membranes
# [7] = target: Sigma non-opioid intracellular receptor 1 (Cavia porcellus, UniProt Q60492); assay: Displacement of [3H](+)-pentazocine from sigma 1 receptor in guinea pig brain cortex membranes after 120 mins by scintillation counting analysis; assay type: cell membranes
# Cytochrome P450 1A2 = target: T2, Cytochrome P450 1A2 (Homo sapiens, UniProt P05177); assay: Inhibition of recombinant human CYP1A2 at 1 uM by fluorescence assay; assay type: ADME; conditions: recombinant enzyme
# T2 sequence (P05177 whole entry): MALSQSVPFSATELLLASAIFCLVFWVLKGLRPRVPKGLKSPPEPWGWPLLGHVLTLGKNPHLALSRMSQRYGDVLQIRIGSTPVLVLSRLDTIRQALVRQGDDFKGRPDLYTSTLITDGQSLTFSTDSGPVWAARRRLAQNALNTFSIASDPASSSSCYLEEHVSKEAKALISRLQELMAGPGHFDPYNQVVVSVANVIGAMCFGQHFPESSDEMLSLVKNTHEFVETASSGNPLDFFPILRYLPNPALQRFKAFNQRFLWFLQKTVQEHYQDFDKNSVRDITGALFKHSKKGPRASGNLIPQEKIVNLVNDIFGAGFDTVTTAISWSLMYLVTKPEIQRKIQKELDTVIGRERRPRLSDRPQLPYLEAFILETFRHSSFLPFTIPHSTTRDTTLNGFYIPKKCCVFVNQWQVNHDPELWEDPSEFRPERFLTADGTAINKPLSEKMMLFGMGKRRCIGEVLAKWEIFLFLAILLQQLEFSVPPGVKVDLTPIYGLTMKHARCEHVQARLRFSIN
# [8] = target: Sodium-dependent dopamine transporter (Homo sapiens) (UniProt Q01959); assay: Binding affinity to dopamine transporter (unknown origin) at 1 uM
# [9] = target: 5-hydroxytryptamine receptor 2B (Homo sapiens) (UniProt P41595); assay: Binding affinity to 5-HT2BR (unknown origin) at 1 uM relative to control
# HepG2 [10] = assay: Cytotoxicity against human HepG2 cells at 1 to 100 uM incubated for 20 hrs under serum free condition by MTT assay; assay type: cell-based; conditions: hepg2, 20 h
# [11] = target: Sigma non-opioid intracellular receptor 1 (Homo sapiens, UniProt Q99720); assay: Displacement of [3H](+)-pentazocine from sigma 1 receptor in human RPMI8226 cell membranes incubated for 2 hrs under shaking by scintillation counting analysis
# CYP2D6 = CYP2D6 (Homo sapiens, UniProt P10635); assay: Inhibition of recombinant human CYP2D6 at 1 uM by fluorescence assay relative to control; assay type: ADME
# [12] = target: T3, 5-hydroxytryptamine receptor 1A (Homo sapiens) (UniProt P08908); assay: Binding affinity to 5-HT1AR (unknown origin) at 1 uM relative to control
# T3 sequence (whole entry): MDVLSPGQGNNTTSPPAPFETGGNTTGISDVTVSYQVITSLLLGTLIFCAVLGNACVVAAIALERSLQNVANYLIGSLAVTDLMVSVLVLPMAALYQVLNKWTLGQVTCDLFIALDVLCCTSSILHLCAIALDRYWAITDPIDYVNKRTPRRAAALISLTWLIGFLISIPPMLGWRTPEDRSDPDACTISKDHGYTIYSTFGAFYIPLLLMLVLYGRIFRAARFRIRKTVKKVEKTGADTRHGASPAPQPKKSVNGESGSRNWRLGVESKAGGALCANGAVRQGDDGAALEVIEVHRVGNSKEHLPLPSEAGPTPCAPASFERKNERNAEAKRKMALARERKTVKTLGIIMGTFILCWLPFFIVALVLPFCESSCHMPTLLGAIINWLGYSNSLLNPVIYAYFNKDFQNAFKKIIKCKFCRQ
# Cytochrome P450 3A4 = Cytochrome P450 3A4 (Homo sapiens, UniProt P08684); assay: Inhibition of recombinant human CYP3A4 at 1 uM by fluorescence assay; assay type: ADME; conditions: recombinant enzyme
# [13] = Metabolic stability in human liver microsomes assessed as parent compound remaining at 1 uM in the presence of NADPH regenerating system after 60 mins by UPLC/MS analysis; assay type: ADME, Microsome; conditions: read-out: Stability
# [14] = target: Sodium-dependent serotonin transporter (Homo sapiens) (UniProt P31645); assay: Binding affinity to serotonin transporter (unknown origin) at 1 uM
# [15] = target: T4, Alpha-1A adrenergic receptor (Homo sapiens) (UniProt P35348); assay: Binding affinity to alpha 1a adrenergic receptor (unknown origin) at 1 uM relative to control
# T4 sequence (whole entry): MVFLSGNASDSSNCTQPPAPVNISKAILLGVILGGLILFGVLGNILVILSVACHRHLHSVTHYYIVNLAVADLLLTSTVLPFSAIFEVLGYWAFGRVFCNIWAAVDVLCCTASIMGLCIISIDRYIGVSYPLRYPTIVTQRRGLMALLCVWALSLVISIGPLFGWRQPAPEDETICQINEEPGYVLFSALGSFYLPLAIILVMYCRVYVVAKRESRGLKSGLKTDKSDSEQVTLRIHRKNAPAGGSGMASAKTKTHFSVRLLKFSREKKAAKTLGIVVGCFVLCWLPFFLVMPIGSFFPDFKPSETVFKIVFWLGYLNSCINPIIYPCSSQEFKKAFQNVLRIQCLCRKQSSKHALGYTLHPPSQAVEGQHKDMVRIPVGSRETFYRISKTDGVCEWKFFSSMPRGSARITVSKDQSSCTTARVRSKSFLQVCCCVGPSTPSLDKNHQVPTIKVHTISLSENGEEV
# Cytochrome P450 2C9 = Cytochrome P450 2C9 (Homo sapiens, UniProt P11712); assay: Inhibition of recombinant human CYP2C9 at 1 uM by fluorescence assay; assay type: ADME; conditions: recombinant enzyme
# [16] = target: T5, Alpha-2A adrenergic receptor (Homo sapiens) (UniProt P08913); assay: Binding affinity to alpha 2a adrenergic receptor (unknown origin) at 1 uM relative to control
# T5 sequence (whole entry): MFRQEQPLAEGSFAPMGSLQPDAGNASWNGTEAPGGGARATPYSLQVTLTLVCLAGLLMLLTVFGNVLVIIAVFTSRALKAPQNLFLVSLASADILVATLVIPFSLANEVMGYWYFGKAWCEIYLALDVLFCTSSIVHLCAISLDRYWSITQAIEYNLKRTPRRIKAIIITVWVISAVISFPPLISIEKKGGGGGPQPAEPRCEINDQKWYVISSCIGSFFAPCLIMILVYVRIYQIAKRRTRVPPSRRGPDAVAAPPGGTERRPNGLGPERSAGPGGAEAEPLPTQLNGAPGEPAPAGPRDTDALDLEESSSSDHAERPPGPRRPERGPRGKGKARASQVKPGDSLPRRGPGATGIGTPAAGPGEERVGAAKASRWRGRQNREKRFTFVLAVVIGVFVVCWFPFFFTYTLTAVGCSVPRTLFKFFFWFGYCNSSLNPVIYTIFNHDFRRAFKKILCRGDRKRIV
# [17] = target: Sodium-dependent noradrenaline transporter (Homo sapiens) (UniProt P23975); assay: Binding affinity to noradrenaline transporter (unknown origin) at 1 uM
# Cytochrome P450 2C19 = Cytochrome P450 2C19 (Homo sapiens, UniProt P33261); assay: Inhibition of recombinant human CYP2C19 at 1 uM by fluorescence assay; assay type: ADME; conditions: recombinant enzyme
# HepG2 [18] = assay: Cytotoxicity against human HepG2 cells at 1 to 100 uM incubated for 20 hrs under serum free condition by neutral red uptake assay; assay type: cell-based; conditions: hepg2, 20 h
# [19] = target: Mu-type opioid receptor (Cavia porcellus) (UniProt P97266); assay: Displacement of [3H]DAMGO from mu opioid receptor in guinea pig brain membranes at 1 uM after 120 mins by scintillation counting analysis relative to control; assay type: cell membranes
# Mu-type opioid receptor [20] = target: Mu-type opioid receptor (Homo sapiens, UniProt P35372); assay: Binding affinity to human mu opioid receptor by cell based assay
# [21] = target: Delta-type opioid receptor (Rattus norvegicus) (UniProt P33533); assay: Displacement of [3H]DPDPE from delta opioid receptor in rat membrane at 1 uM after 120 mins by scintillation counting analysis relative to control; assay type: cell membranes
# [22] = target: Sigma intracellular receptor 2 (Rattus norvegicus) (UniProt Q5U3Y7); assay: Displacement of [3H]-di-o-tolylguanidine from sigma2 receptor in rat liver membranes at 1 uM incubated for 120 mins in the presence of sigma1 receptor ligand (+)-pentazocine by scintillation counting method relative to control; assay type: cell membranes
# Cytochrome P450 2C19, sequence (P33261 whole entry): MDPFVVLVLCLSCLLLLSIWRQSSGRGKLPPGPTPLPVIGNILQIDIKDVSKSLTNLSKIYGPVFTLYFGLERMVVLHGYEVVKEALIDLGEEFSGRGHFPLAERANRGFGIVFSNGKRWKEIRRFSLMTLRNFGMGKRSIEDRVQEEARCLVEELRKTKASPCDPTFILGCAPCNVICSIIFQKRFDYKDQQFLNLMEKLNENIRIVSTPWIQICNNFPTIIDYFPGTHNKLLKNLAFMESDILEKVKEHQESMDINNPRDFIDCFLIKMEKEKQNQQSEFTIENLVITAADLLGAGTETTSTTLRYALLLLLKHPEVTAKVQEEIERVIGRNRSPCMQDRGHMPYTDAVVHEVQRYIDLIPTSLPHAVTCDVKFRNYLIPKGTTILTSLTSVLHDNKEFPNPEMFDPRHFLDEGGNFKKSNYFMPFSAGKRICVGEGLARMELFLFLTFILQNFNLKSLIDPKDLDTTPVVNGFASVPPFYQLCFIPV
# Sigma non-opioid intracellular receptor 1 (Homo sapiens, UniProt Q99720), sequence (Q99720 whole entry): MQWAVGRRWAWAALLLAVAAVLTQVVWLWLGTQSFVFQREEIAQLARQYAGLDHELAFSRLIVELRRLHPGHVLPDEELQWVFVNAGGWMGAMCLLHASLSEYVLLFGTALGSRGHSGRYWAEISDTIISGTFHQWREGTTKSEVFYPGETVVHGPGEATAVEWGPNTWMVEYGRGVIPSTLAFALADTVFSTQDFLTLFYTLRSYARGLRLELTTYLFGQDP
# Delta-type opioid receptor, sequence (P33533 whole entry): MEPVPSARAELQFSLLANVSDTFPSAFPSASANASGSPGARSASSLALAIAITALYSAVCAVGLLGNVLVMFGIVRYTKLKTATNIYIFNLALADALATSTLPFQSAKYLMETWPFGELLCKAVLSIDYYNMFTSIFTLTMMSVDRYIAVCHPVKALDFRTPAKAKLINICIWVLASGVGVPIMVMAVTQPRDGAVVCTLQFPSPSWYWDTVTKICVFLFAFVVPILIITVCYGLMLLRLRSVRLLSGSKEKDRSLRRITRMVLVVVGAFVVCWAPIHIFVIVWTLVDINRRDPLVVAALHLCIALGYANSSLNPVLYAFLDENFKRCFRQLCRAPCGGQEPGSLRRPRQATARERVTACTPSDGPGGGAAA
# CYP2D6, sequence (P10635 whole entry): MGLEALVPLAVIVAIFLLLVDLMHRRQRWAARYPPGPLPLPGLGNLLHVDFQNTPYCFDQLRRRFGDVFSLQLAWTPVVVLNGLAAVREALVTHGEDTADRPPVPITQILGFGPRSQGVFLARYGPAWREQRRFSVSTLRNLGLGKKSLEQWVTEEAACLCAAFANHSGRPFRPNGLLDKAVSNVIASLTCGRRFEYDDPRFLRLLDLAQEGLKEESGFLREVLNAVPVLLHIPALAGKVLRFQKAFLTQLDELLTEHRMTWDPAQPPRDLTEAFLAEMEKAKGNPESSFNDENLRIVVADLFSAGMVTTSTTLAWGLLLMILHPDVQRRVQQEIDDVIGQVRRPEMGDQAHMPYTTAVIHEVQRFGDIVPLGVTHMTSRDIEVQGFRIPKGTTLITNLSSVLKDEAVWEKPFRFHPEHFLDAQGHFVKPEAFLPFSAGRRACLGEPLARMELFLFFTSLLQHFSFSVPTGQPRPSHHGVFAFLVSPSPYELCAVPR
# Kappa-type opioid receptor, sequence (P41144 whole entry): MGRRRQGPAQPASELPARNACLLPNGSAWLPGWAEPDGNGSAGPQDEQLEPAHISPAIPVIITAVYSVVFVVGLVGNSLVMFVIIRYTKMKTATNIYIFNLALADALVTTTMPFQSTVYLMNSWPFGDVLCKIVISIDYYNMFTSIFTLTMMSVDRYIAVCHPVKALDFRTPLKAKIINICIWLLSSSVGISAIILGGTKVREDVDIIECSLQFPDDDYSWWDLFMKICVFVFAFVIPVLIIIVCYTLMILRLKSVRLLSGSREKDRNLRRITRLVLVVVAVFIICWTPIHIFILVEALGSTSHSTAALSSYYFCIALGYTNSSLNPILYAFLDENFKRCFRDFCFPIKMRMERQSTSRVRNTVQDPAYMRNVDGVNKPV
# 5-hydroxytryptamine receptor 2B (Homo sapiens), sequence (P41595 whole entry): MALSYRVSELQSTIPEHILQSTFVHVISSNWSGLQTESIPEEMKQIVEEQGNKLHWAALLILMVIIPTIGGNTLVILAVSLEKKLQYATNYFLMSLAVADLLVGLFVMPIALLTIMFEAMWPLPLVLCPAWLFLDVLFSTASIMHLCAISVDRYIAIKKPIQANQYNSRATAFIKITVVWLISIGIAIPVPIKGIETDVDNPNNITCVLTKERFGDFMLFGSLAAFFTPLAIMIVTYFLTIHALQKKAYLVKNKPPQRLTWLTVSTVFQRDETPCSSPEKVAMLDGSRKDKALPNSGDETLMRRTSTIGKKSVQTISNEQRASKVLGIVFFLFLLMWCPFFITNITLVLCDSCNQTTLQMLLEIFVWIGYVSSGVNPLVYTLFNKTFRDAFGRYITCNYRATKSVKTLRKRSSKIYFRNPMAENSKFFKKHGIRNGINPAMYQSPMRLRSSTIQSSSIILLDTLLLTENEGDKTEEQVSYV
# Sigma non-opioid intracellular receptor 1 (Cavia porcellus, UniProt Q60492), sequence (Q60492 whole entry): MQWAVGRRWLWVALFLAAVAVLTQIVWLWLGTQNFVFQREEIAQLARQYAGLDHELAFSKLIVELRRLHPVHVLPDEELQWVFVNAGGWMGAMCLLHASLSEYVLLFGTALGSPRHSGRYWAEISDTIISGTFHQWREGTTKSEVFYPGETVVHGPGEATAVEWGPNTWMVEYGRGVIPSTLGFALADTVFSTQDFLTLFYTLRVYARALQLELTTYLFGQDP
# Cytochrome P450 3A4, sequence (P08684 whole entry): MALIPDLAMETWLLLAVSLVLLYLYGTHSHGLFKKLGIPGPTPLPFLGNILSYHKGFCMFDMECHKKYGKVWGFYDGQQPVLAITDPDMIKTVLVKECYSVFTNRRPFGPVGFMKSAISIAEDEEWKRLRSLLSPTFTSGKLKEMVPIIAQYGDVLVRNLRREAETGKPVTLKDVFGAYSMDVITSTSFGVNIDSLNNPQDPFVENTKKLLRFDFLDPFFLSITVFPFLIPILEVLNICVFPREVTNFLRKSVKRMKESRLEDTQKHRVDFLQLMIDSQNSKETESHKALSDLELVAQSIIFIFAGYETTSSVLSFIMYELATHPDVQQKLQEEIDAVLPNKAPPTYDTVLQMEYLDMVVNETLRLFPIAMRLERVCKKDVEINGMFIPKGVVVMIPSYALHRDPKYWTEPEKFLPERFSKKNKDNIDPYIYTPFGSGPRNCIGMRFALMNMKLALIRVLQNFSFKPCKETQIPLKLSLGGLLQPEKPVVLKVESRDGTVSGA
# Sodium-dependent noradrenaline transporter (Homo sapiens), sequence (P23975 whole entry): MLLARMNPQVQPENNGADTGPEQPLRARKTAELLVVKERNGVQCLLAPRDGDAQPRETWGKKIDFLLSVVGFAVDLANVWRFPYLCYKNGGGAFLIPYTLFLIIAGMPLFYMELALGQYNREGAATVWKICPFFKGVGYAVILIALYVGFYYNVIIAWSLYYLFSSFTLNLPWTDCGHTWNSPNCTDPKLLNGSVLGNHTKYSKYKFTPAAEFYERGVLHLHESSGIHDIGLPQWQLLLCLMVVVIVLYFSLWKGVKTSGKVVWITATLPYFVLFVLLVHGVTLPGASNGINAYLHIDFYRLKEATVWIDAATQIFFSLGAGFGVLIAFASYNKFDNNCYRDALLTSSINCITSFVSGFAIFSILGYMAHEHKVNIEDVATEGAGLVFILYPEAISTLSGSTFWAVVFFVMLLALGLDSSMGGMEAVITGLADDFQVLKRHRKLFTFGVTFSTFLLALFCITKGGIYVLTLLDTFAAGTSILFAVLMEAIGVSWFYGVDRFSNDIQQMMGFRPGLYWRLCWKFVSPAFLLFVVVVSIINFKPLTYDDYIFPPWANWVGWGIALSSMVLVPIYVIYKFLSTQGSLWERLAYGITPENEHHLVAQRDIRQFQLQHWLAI
# Cytochrome P450 2C9, sequence (P11712 whole entry): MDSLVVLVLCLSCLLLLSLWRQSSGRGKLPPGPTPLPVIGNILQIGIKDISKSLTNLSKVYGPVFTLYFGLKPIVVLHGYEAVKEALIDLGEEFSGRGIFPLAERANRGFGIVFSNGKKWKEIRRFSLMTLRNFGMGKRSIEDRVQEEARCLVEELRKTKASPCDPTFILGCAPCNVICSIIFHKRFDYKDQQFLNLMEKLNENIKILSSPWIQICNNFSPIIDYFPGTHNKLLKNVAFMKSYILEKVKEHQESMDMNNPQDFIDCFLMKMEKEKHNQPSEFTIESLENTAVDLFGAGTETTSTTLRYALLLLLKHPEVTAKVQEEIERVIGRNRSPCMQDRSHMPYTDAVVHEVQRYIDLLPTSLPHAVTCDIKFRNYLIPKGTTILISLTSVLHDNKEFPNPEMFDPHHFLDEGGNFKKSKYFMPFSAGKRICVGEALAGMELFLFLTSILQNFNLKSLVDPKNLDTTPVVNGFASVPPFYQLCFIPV
# Sodium-dependent dopamine transporter (Homo sapiens), sequence (Q01959 whole entry): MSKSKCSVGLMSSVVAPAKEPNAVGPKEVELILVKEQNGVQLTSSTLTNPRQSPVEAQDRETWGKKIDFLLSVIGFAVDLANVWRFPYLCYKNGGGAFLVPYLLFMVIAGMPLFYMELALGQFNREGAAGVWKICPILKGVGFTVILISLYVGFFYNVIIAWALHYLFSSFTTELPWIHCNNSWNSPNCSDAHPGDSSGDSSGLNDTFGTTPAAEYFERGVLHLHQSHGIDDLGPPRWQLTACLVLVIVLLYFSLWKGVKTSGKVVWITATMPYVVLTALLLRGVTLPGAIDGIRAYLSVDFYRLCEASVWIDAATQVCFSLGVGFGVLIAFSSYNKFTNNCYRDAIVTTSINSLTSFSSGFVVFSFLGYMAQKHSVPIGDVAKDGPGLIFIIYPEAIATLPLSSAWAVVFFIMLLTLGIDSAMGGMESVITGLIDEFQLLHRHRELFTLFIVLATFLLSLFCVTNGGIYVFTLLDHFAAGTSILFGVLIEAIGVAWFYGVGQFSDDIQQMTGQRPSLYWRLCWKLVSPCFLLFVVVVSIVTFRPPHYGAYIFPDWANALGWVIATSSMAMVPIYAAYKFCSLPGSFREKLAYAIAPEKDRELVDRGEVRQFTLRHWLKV
# Delta-type opioid receptor (Rattus norvegicus), sequence (P33533 whole entry): as the sequence (P33533 whole entry) above
Ki [1] [nM],Ratio Ki [2],Ki [4] [nM],Ki [5] [nM],Ki (Mu-type opioid receptor [6]) [nM],Activity (Sus scrofa),Ki [7] [nM],inhibition (INH) (Cytochrome P450 1A2),Activity [8],Activity [9],Ki [11] [nM],inhibition at 1 µM (CYP2D6) [%],Activity [12],inhibition (INH) (Cytochrome P450 3A4),"remaining at 1 h, 1 µM [13] [%]",Activity [14],Activity [15],inhibition (INH) (Cytochrome P450 2C9),Activity [16],SMILES,Activity (HepG2 [10]),other results
204,5 to 10,2000,49,38,inactive,–,–,–,–,–,–,–,–,–,–,–,–,–,COC1Cc2ccccc2[C@]2(CC[C@@H](NCc3ccccc3)CC2)O1 (some centres undefined),–,inhibition [3]: 40%; Ratio Ki (Cavia porcellus): 14
2300,5 to 10,329,1300,–,inactive,–,Not Active,inactive,inactive,39,> 90,inactive,Not Active,> 50,inactive,inactive,Not Active,inactive,COC1Cc2ccccc2[C@]2(CC[C@H](N(C)Cc3ccccc3)CC2)O1 (some centres undefined),Non-Toxic,inhibition [19]: 12%; Activity [17]: inactive; inhibition (INH) (Cytochrome P450 2C19): Not Active; Activity (HepG2 [18]): Non-Toxic
250,5 to 10,1440,371,41,inactive,–,Not Active,inactive,inactive,40,> 90,inactive,Not Active,> 50,inactive,inactive,Not Active,inactive,COC1Cc2ccccc2[C@]2(CC[C@@H](N(C)Cc3ccccc3)CC2)O1 (some centres undefined),Non-Toxic,Ki (Mu-type opioid receptor [20]): 18 nM; Activity [17]: inactive; inhibition (INH) (Cytochrome P450 2C19): Not Active; Activity (HepG2 [18]): Non-Toxic
413,5 to 10,–,–,115,–,262,–,–,–,–,–,–,–,–,–,–,–,–,COC1O[C@]2(CC[C@H](NCc3ccccc3)CC2)c2ccccc21 (some centres undefined),–,inhibition [21]: 30%; inhibition [22]: 25%
85,5 to 10,–,14,31,–,256,–,–,–,–,–,–,–,–,–,–,–,–,c1ccc(CN[C@H]2CC[C@@]3(CC2)OCCc2ccccc23)cc1,–,inhibition [22]: 13%; Ratio Ki (Cavia porcellus): 8.5

SMILES,Ki [1] [nM],Ratio Ki [2],Ki [4] [nM],Ki [5] [nM],Ki (Mu-type opioid receptor [6]) [nM],Activity (Sus scrofa),Ki [7] [nM],inhibition (INH) (Cytochrome P450 1A2),Activity [8],Activity [9],Ki [11] [nM],inhibition at 1 µM (CYP2D6) [%],Activity [12],inhibition (INH) (Cytochrome P450 3A4),"remaining at 1 h, 1 µM [13] [%]",Activity [14],Activity [15],inhibition (INH) (Cytochrome P450 2C9),Activity [16],Activity (HepG2 [10]),other results
COC1Cc2ccccc2[C@]2(CC[C@@H](N(C)CC3CCCCC3)CC2)O1 (some centres undefined),980,50,154,150,299,inactive,3.1,Not Active,inactive,inactive,6.9,> 90,inactive,Not Active,> 50,inactive,inactive,Not Active,inactive,Non-Toxic,Activity [17]: inactive; inhibition (INH) (Cytochrome P450 2C19): Not Active; Activity (HepG2 [18]): Non-Toxic
